# Read-outs that look alike come from different tables or passages of the source.
# Key:
# [1] = tested on: osteoarthritic rats; assay: Osteoarthritic (OA) pain induced by sodium monoiodoacetate (MIA), hind limb grip force; format: in vivo, rat; conditions: Rattus norvegicus, 480 h, rat, 20 days following MIA injection, hind limb grip force, read-out: OA MPE; for inhibition in vivo at 10 mg/kg: OA dose 10 mg/kg; for inhibition in vivo at 30 mg/kg: OA dose 30 mg/kg
# Experimental: Osteoarthritic (OA) Pain Induced by Sodium Monoiodoacetate (MIA)
# Pain behavior was assessed by measurement of hind limb grip force (GF) in adult osteoarthritic rats. Male Sprague Dawley rats, obtained from Charles River Laboratories, (Wilmington, Mass.), weighing 150-175 g, were injected in the unilateral knee join with a single intra-articular injection of sodium monoiodoacetate (MIA, 3 mg/rat). All rats were tested at 20 days following MIA injection. A behavioral measure of activity-induced pain was carried out. Measurements of the peak hind limb grip force were conducted by recording the maximum compressive force (CFmax), in grams of force, exerted on a hind limb strain gauge setup, in a commercially available grip force measurement system (Columbus Instruments, Columbus, Ohio).
# During testing, each rat was gently restrained by grasping it around its rib cage and then allowed to grasp the wire mesh frame attached to the strain gauge. The experimenter then moved the animal in a rostral-to-caudal direction until the grip was broken. Each rat was sequentially tested twice at an approximately 2-3 minute interval to obtain a raw mean grip force (CFmax). This raw mean grip force data was in turn converted to a maximum hindlimb cumulative compressive force (CFmax), as the grams of force/kg of body weight, for each animal.
# For evaluating the compound effects, the hind limb grip force was conducted 20 days following the intra-articular injection of MIA. A group of age-matched naïve (not injected with MIA) animals was added as a comparator to the drug-dosed groups. The vehicle control response for each group of MIA-treated animals was defined as the 0% response (0% effect), whereas the naïve control group was defined as the normal response and as 100% effect. The % effect for each dose group was expressed as % return of response to normalcy, compared to the naïve group. A percent maximal possible effect (% MPE) of testing compound was calculated according to the formula: (Treatment CFmax−Vehicle CFmax)/Vehicle CFmax]×100). Higher % effect numbers indicate increased relief from the pain in the model, with 100% indicating a return to the level of response seen in normal (non-osteoarthritic) animals. All experiments evaluating drug effects in this model were conducted in a randomized blinded fashion.
# The animals were housed in Association for Assessment and Accreditation of Laboratory Animal Care (AAALAC) approved facilities at AbbVie Inc. in a temperature-regulated environment under a controlled 12-hour light-dark cycle, with lights on at 6:00 a.m. Food and water were available ad libitum at all times except during testing. All testing was done following procedures outlined in protocols approved by AbbVie Inc.'s Institutional Animal Care and Use Committee.
# [2] = biological target: recombinant human Nav1.7 (Homo sapiens (Human), UniProt Q15858); assay: FRET-based membrane potential assay, recombinant human sodium channel Nav1.7; format: cell-based
# recombinant human Nav1.7, sequence (Q15858 whole entry): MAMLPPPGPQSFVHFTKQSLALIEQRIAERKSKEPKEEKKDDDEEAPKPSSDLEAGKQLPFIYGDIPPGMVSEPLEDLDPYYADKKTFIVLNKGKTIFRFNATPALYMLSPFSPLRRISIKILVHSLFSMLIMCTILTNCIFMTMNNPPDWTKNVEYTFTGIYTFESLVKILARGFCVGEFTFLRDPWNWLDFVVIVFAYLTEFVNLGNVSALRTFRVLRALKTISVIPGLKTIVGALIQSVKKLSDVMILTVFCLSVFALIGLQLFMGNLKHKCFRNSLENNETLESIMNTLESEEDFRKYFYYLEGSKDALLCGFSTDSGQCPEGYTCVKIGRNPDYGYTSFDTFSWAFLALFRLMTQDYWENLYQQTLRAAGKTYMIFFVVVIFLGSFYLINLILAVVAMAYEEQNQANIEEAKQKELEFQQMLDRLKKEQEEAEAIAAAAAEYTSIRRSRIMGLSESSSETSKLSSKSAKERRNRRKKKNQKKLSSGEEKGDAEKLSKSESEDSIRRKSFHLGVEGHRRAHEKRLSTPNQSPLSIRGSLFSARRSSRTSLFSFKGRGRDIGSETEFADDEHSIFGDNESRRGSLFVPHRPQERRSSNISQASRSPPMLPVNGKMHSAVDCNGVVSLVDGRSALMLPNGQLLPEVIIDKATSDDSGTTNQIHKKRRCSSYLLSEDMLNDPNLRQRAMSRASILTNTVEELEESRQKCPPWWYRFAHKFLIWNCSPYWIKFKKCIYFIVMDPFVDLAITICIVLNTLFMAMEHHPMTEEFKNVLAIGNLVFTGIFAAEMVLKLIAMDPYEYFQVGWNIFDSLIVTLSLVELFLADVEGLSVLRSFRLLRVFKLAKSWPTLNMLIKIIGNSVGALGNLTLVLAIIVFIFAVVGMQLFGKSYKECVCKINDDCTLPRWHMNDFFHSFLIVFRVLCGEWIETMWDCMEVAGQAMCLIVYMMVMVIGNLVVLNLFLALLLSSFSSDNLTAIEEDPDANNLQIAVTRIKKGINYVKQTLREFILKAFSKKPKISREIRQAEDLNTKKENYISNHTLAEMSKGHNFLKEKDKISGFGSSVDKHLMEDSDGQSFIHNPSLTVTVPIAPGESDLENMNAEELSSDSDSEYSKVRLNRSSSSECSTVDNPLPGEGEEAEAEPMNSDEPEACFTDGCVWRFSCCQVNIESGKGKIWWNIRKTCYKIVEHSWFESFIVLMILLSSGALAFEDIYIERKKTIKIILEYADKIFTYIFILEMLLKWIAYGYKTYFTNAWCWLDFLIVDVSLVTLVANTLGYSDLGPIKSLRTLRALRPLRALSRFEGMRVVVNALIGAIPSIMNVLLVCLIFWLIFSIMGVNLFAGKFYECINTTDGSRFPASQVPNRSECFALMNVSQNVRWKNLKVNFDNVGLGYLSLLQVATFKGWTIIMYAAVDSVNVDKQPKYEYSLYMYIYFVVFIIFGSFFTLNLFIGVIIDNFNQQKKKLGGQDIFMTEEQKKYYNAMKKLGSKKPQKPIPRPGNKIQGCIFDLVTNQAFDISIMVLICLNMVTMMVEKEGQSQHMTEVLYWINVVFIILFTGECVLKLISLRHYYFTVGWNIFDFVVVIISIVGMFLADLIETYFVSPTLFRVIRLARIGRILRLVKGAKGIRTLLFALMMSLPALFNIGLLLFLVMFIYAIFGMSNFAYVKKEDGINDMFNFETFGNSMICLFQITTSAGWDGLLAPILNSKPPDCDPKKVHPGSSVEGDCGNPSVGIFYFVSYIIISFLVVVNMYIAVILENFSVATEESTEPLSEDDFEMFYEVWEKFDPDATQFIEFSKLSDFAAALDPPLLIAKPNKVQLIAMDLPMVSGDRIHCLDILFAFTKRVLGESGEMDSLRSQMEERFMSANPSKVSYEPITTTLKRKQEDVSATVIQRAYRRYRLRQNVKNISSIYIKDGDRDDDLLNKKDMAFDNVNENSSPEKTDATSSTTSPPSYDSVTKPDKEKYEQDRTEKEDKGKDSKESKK
# How it was run: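 Channel activation used veratridine at its EC80, set by a dilution curve each experiment, together with Leiurus scorpion venom, added 3 min after compound. Membrane-potential ratio signals from FLIPR Tetra in HEPES-buffered HBSS were fitted to a four-parameter Hill equation for percent inhibition and IC50.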
# [3] = read-out: FRET-Membrane Potential Nav1.7 IC50
# [4] = HEK293 cells stably expressing recombinant human Nav1.7, veratridine + scorpion venom depolarization, read-out: FRET-Membrane Potential Nav1.7 IC50
Compound,inhibition in vivo at 10 mg/kg [1] [%],"IC50 [2, 4] [µM]",further results
"O=C(N[C@@H]1CS(=O)(=O)C[C@H]1O)c1ccc2cc(Oc3ccc(C(F)(F)F)cn3)ccc2n1 [Example 24, N-[(3S,4S)-4-hydroxy-1,1-dioxidotetrahydrothiophen-3-yl]-6-{[5-(trifluoromethyl)pyridin-2-yl]oxy}quinoline-2-carboxamide]",62,,"IC50 [2, 3]: 1.58 µM"
"O=C(c1ccc2cc(Oc3ccc(C(F)(F)F)cn3)ccc2n1)N1C[C@@H]2C[C@H]1CN2 [Example 3, (1S,4S)-2,5-diazabicyclo[2.2.1]hept-2-yl(6-{[5-(trifluoromethyl)pyridin-2-yl]oxy}quinolin-2-yl)methanone]",,1.45,inhibition in vivo at 30 mg/kg [1]: 46%
"CN(C)C(=O)CNC(=O)c1ccc2cc(Oc3ccc(C(F)F)cn3)ccc2n1 [Example 441, 6-{[5-(difluoromethyl)pyridin-2-yl]oxy}-N-[2-(dimethylamino)-2-oxoethyl]quinoline-2-carboxamide]",22,,"IC50 [2, 3]: 1.15 µM"
"C[C@@H](O)CNC(=O)c1ccc2cc(Oc3ccc(C(F)(F)F)cn3)ccc2n1 [Example 38, N-[(2R)-2-hydroxypropyl]-6-{[5-(trifluoromethyl)pyridin-2-yl]oxy}quinoline-2-carboxamide]",30,,"IC50 [2, 3]: 0.311 µM"
"O=C1CC(NC(=O)c2ccc3cc(Oc4ccc(C(F)(F)F)cn4)ccc3n2)CCN1 (centres unmarked) [Example 40, N-(2-oxopiperidin-4-yl)-6-{[5-(trifluoromethyl)pyridin-2-yl]oxy}quinoline-2-carboxamide]",59,,"IC50 [2, 3]: 0.285 µM"
"CN(CC(F)(F)F)C(=O)c1ccc2cc(Oc3ccc(C(F)(F)F)cn3)ccc2n1 [Example 616, N-methyl-N-(2,2,2-trifluoroethyl)-6-{[5-(trifluoromethyl)pyridin-2-yl]oxy}quinoline-2-carboxamide]",,2.63,inhibition in vivo at 30 mg/kg [1]: 28%
"O=C(c1ccc2cc(Oc3ccc(OC(F)(F)F)cn3)ccc2n1)N1CCNCC1 [Example 431, piperazin-1-yl(6-{[5-(trifluoromethoxy)pyridin-2-yl]oxy}quinolin-2-yl)methanone]",,,inhibition in vivo at 30 mg/kg [1]: 73%
"CC(=O)c1ccc(Oc2ccc3nc(C(=O)N4CCNCC4)ccc3c2)cc1 [Example 7, 1-(4-{[2-(piperazin-1-ylcarbonyl)quinolin-6-yl]oxy}phenyl)ethanone]",,,inhibition in vivo at 30 mg/kg [1]: 51%
"CN(C)C(=O)CNC(=O)c1ccc2cc(Oc3ccc(C(F)(F)F)nc3)ccc2n1 [Example 42, N-[2-(dimethylamino)-2-oxoethyl]-6-{[6-(trifluoromethyl)pyridin-3-yl]oxy}quinoline-2-carboxamide]",64,1.79,
"O=C(N[C@H]1CS(=O)(=O)C[C@H]1O)c1ccc2cc(Oc3ccc(C(F)(F)F)cn3)ccc2n1 [Example 26, N-[(3R,4S)-4-hydroxy-1,1-dioxidotetrahydrothiophen-3-yl]-6-{[5-(trifluoromethyl)pyridin-2-yl]oxy}quinoline-2-carboxamide]",67,,"IC50 [2, 3]: 1.99 µM"
"C[C@H]1CN(C(=O)c2ccc3cc(Oc4ccc(C(F)(F)F)cn4)ccc3n2)CCN1 [Example 13, [(3S)-3-methylpiperazin-1-yl](6-{[5-(trifluoromethyl)pyridin-2-yl]oxy}quinolin-2-yl)methanone]",44,,"IC50 [2, 3]: 0.454 µM"
"O=C(N[C@H]1C[C@@H](O)C1)c1ccc2cc(Oc3ccc(C(F)(F)F)cn3)ccc2n1 [Example 34, N-(cis-3-hydroxycyclobutyl)-6-{[5-(trifluoromethyl)pyridin-2-yl]oxy}quinoline-2-carboxamide]",41,,IC50 ([2]; FRET-Membrane Potential Nav1.7 IC50): 0.841 µM
"O=C(c1ccc2cc(Oc3ccc(C(F)(F)F)cn3)ccc2n1)N1C[C@@H](O)[C@@H](O)C1 [Example 9, [cis-3,4-dihydroxypyrrolidin-1-yl](6-{[5-(trifluoromethyl)pyridin-2-yl]oxy}quinolin-2-yl)methanone]",68,2.08,
"O=C(c1ccc2cc(Oc3ccc(C(F)(F)F)cn3)ccc2n1)N1CCNC2(CC2)C1 [Example 39, 4,7-diazaspiro[2.5]oct-7-yl(6-{[5-(trifluoromethyl)pyridin-2-yl]oxy}quinolin-2-yl)methanone]",,0.735,inhibition in vivo at 30 mg/kg [1]: 43%
"CS(=O)(=O)C1CN(C(=O)c2ccc3cc(Oc4ccc(C(F)(F)F)cn4)ccc3n2)C1 [Example 29, [3-(methylsulfonyl)azetidin-1-yl](6-{[5-(trifluoromethyl)pyridin-2-yl]oxy}quinolin-2-yl)methanone]",20,,
"NC1CN(C(=O)c2ccc3cc(Oc4ccc(C(F)(F)F)cn4)ccc3n2)C1 [Example 8, (3-aminoazetidin-1-yl)(6-{[5-(trifluoromethyl)pyridin-2-yl]oxy}quinolin-2-yl)methanone]",,0.232,inhibition in vivo at 30 mg/kg [1]: 91%
"C[C@@H]1CN(C(=O)c2ccc3cc(Oc4ccc(C(F)(F)F)cn4)ccc3n2)CCN1 [Example 12, [(3R)-3-methylpiperazin-1-yl](6-{[5-(trifluoromethyl)pyridin-2-yl]oxy}quinolin-2-yl)methanone]",79,,"IC50 [2, 3]: 0.348 µM"
"C[C@H]1CN(C(=O)c2ccc3cc(Oc4ccc(C(F)F)cn4)ccc3n2)CCN1 [Example 43, (6-{[5-(difluoromethyl)pyridin-2-yl]oxy}quinolin-2-yl) [(3S)-3-methylpiperazin-1-yl]methanone]",71,3.06,
"O=C(NCC1CCO1)c1ccc2cc(Oc3ccc(C(F)(F)F)cn3)ccc2n1 (centres unmarked) [Example 37, N-(oxetan-2-ylmethyl)-6-{[5-(trifluoromethyl)pyridin-2-yl]oxy}quinoline-2-carboxamide]",29,0.392,
"CC[C@@H]1CN(C(=O)c2ccc3cc(Oc4ccc(C(F)(F)F)cn4)ccc3n2)CCN1 [Example 16, [(3R)-3-ethylpiperazin-1-yl](6-{[5-(trifluoromethyl)pyridin-2-yl]oxy}quinolin-2-yl)methanone]",57,0.406,
"N#Cc1ccc(Oc2ccc3nc(C(=O)N[C@H]4CC[C@@H](O)C4)ccc3c2)cc1 [Example 130, 6-(4-cyanophenoxy)-N-[(1S,3R)-3-hydroxycyclopentyl]quinoline-2-carboxamide]",,2.05,
"O=C(c1ccc2cc(Oc3ccc(C(F)(F)F)cn3)ccc2n1)N1CC2(CNC2)C1 [Example 157, 2,6-diazaspiro[3.3]hept-2-yl(6-{[5-(trifluoromethyl)pyridin-2-yl]oxy}quinolin-2-yl)methanone]",,> 20,
"O=C(NCCO)c1ccc2cc(Oc3ccc(C(F)(F)F)cn3)ccc2n1 [Example 326, N-(2-hydroxyethyl)-6-{[5-(trifluoromethyl)pyridin-2-yl]oxy}quinoline-2-carboxamide]",,,"IC50 [2, 3]: 3.15 µM"
"O=C(c1ccc2cc(Oc3ccc(C(F)(F)F)cn3)ccc2n1)N1C[C@@H](O)[C@H](O)C1 (relative stereo) [Example 303, [trans-3,4-dihydroxypyrrolidin-1-yl](6-{[5-(trifluoromethyl)pyridin-2-yl]oxy}quinolin-2-yl)methanone]",,5.68,
"CNC(=O)CNC(=O)c1ccc2cc(Oc3ccc(C#N)cc3)ccc2n1 [Example 145, 6-(4-cyanophenoxy)-N-[2-(methylamino)-2-oxoethyl]quinoline-2-carboxamide]",,3.09,
"O=C(c1ccc2cc(Oc3ccc(C(F)(F)F)cn3)ccc2n1)N1CC[C@H](O)[C@H]1CO [Example 304, [(2R,3S)-3-hydroxy-2-(hydroxymethyl)pyrrolidin-1-yl](6-{[5-(trifluoromethyl)pyridin-2-yl]oxy}quinolin-2-yl)methanone]",,> 20,
"O=C(NCC(O)C(F)(F)F)c1ccc2cc(Oc3ccc(C(F)(F)F)cn3)ccc2n1 (centres unmarked) [Example 75, N-(3,3,3-trifluoro-2-hydroxypropyl)-6-{[5-(trifluoromethyl)pyridin-2-yl]oxy}quinoline-2-carboxamide]",,0.944,

# — patent US9452986B2, “6-heteroaryloxy- or 6-aryloxy-quinoline-2-carboxamides and method of use” (AbbVie Inc., priority 2014, dated 2016)
